The values below come from patent US20230265044A1, “SALT OF DEMETHYL TRAMADOL AND USE THEREOF” (priority 2020, published 2023).

≈ marks a conversion by molar mass, not a printed value.

Data set [1] can be described thus: Determination on solubility in water (HPLC, stirred 24 hr). It is filed as physicochemical. As to conditions: for solubility: in water, stirred for 24 hr; for approximate solubility: water needed to dissolve 1 g: per 1 g of sample, converted from solubility. As for the experimental part: 1. chromatographic column: Agilent Pursuit C18, 3um, 4.6*150 mm
2. Mobile phase: 0.1% trifluoroacetic acid: acetonitrile=20: 80, flow rate: 1.0 mL/min, wavelength: 215 nm, column temperature: 35° C., injection volume: 10 μl;
3. Mobile phase preparation process:
1.0 mL of trifluoroacetic acid was added into 1000 mL of water, mixed well, and ultrasonicated;
4. Sample preparation process
About 10 mg of the sample to be tested was weighed and added into 1 mL of water, stirred for 24 hr, and centrifuged. The supernatant was taken as the sample for testing solubility. 10 mg of demethyl tramadol palmitate with the same structure as the sample to be tested was weighed and placed in a 100 mL measuring flask, 80% aqueous methanol solution was added to dissolve and dilute the demethyl tramadol palmitate to the scale, which was used as the corresponding reference solution.

The nature of data set [2]: Determination on hygroscopicity (80% RH, 24 h). It is filed as physicochemical. How it is done:
Test process: a weighing bottle was taken, put into a dryer with 80% RH saturated solution, balanced for 24 h, taken out, and weighed as m1; a sample was taken, spread into the weighing bottle with a thickness about 1 mm, and weighed as m2; and then the weighing bottle was put into the dryer with 80% RH saturated solution, balanced for 24 h, and weighed as m3.
Calculation formula: hygroscopicity=(m3−m2)/(m2−m1)*100%

In general, solubility refers to the concentration that dissolves in the medium under given conditions. The low end stands for a poorly soluble substance, the high end for a readily soluble substance. racemic demethyl tramadol acetate: in data set [1], the solubility entry is “higher than 50 mg/mL” and the “approximate solubility: water needed to dissolve 1 g” value (from here on “approximate solubility: water needed”) is at most 20 mL.
Turning to `CN(C)CC1CCCCC1(O)c1cccc(O)c1` (racemic) [Example 2, Demethyl Tramadol Palmitate Monosalt], in data set [1], the solubility was 700 µg/mL and the “approximate solubility: water needed” value amounted to 1428.6 mL. The same compound registered a hygroscopicity in data set [2] of 6.3%.
As for `CN(C)C[C@H]1CCCC[C@]1(O)c1cccc(O)c1` (racemic) [racemic demethyl tramadol free base, (±)-(1RS, 2RS)-2-[(N,N dimethylamino)methylene]-1-hydroxy-cyclohexyl phenol], in data set [1], the solubility was determined as 1400 µg/mL (≈ 5.61 mM) and the “approximate solubility: water needed” value came out at 714.3 mL.
With `CN(C)C[C@H]1CCCC[C@]1(O)c1cccc(O)c1.Cl` (racemic) [racemic demethyl tramadol hydrochloride], in data set [1], the solubility entry is reported as “higher than 200 mg/mL” and the “approximate solubility: water needed” value is at most 5 mL.
